Measurements from patent US20130202698A1 (NANJING SANHOME PHARMACEUTICAL CO., LTD., priority 2005, published 2013).

What was measured:
[1] = Phase I clinical trials, intravenous, adverse events; type: in vivo; conditions: human phase I, 1.0 g, I.V., qd × 1d
Method: The clinical trials were conducted to test if the toxicities observed in animal models would correlate with the adverse effects in humans. Double-blinded, randomized controlled human phase I and phase II clinical trials were carried out to compare L-ornidazole with racemate in both intravenous (I.V.) and oral formulations. L-ornidazole caused remarkably less adverse events (related to nervous system) than the racemate in both I.V. and oral routes. Such adverse drug events may cause non-compliance in patients being treated, which could be dangerous for life-threatening infections.

[2] = test system: thiopental-induced hypnosis; experiment: Effects on thiopental-induced hypnosis; conditions: mice, 30 min before sodium thiopental 40 mg/kg IP, Mean ± SD, n=10
Method: A total of 70 mice were divided into 7 groups with 10 mice in each group (half male and half female), and animals were fasted for 8 hours before study. Vehicle control and ornidazole enantiomers were injected intraperitoneal (IP), after 30 minutes, sodium thiopental was then given IP: at 40 mg/kg.
Levo-, dextro-ornidazole and racemate are studied and compared in 6 treatment groups at 2 different dose levels of 40 and 80 mg/kg. The dose volume is 0.2 mL/10 gram and infusion rate is 0.2 mL/10 seconds.

## Cc1ncc([N+](=O)[O-])n1CC(O)CCl (racemic) [Racemic ornidazole, 1-(3-Chloro-2-hydroxypropyl)-2-methyl-5-nitroimidazole]
[1]
  # of Patients Reporting Adverse Events/Total Patients: 5/10
[2]; 40 mg/kg IP
  Sleeping Time: 74.0 ± 51.3 min
  Time to Lose Righting Reflex: 2.1 ± 0.3 min
[2]; 80 mg/kg IP
  Sleeping Time: 106.6 ± 99.2 min
  Time to Lose Righting Reflex: 1.9 ± 0.4 min
